Test results published in the supplement of paper PMC4862054.

test system: HCC1599; experiment: normalised response (% of control), CellTox Green; higher = less cell death (100 = DMSO, 0 = benzethonium chloride kill control); settings: incubation time: 72 h
Summary of the method: (§1)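 Two readouts were taken after 72 h: CellTox Green fluorescence (485/520 nm) first, then CellTiter-Glo luminescence after 10 min at room temperature. Breast cancer cell lines had been seeded as 20 µl suspension into 384-well plates holding compound at 5 concentrations in 10-fold steps across a compound-specific 10,000-fold range. Each value is a normalised signal at a single concentration, with plates scaled to 0.1 % DMSO (100) and a positive kill control (0).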

| SMILES | normalised response [%] |
| --- | --- |
| CC[C@H](CO)Nc1nc(NCc2ccccc2)c2ncn(C(C)C)c2n1 [Seliciclib] (1000 nM) | 103 |
| C=CCN(/C=C1/C(=O)O[C@H](COC)[C@@]2(C)C1=C(O)C(=O)C1=C2[C@H](OC(C)=O)C[C@]2(C)C(=O)CC[C@@H]12)CC=C [Sonolisib] (1000 nM) | 115 |

test system: HDQ-P1; experiment: as above; settings: incubation time: 72 h
Summary of the method: as §1

| SMILES | normalised response [%] |
| --- | --- |
| CN[C@@H](C)C(=O)N[C@H]1CN(C(=O)CC(C)C)CC[C@H]2CC[C@@H](C(=O)NC(c3ccccc3)c3ccccc3)N2C1=O [AT-406] (1000 nM) | 79.6 |
| CC1(COc2ccc3c(c2)ncn3-c2ccc3cccc(N4CCC(N)CC4)c3n2)COC1 [Crenolanib] (1000 nM) | 71 |
| CC(C)(C)c1nc(-c2cccc(NS(=O)(=O)c3c(F)cccc3F)c2F)c(-c2ccnc(N)n2)s1 [Dabrafenib] (250 nM) | 114 |
| CC[C@H](CO)Nc1nc(NCc2ccccc2)c2ncn(C(C)C)c2n1 [Seliciclib] (1000 nM) | 92.7 |
| C=CCN(/C=C1/C(=O)O[C@H](COC)[C@@]2(C)C1=C(O)C(=O)C1=C2[C@H](OC(C)=O)C[C@]2(C)C(=O)CC[C@@H]12)CC=C [Sonolisib] (1000 nM) | 98.1 |

test system: HCC1937; experiment: as above; settings: incubation time: 72 h
Summary of the method: as §1

| SMILES | normalised response [%] |
| --- | --- |
| CN[C@@H](C)C(=O)N[C@H]1CN(C(=O)CC(C)C)CC[C@H]2CC[C@@H](C(=O)NC(c3ccccc3)c3ccccc3)N2C1=O [AT-406] (1000 nM) | 101 |
| CC1(COc2ccc3c(c2)ncn3-c2ccc3cccc(N4CCC(N)CC4)c3n2)COC1 [Crenolanib] (1000 nM) | 51.6 |
| CC(C)(C)c1nc(-c2cccc(NS(=O)(=O)c3c(F)cccc3F)c2F)c(-c2ccnc(N)n2)s1 [Dabrafenib] (250 nM) | 106 |
| Cc1nc(C(=O)NCC(=O)O)c(O)c2ccc(Oc3ccccc3)cc12 [FG-4592] (1000 nM) | 110 |
| CC[C@H](CO)Nc1nc(NCc2ccccc2)c2ncn(C(C)C)c2n1 [Seliciclib] (1000 nM) | 125 |

test system: CAL-51; experiment: as above; settings: incubation time: 72 h
Summary of the method: as §1

| SMILES | normalised response [%] |
| --- | --- |
| CN[C@@H](C)C(=O)N[C@H]1CN(C(=O)CC(C)C)CC[C@H]2CC[C@@H](C(=O)NC(c3ccccc3)c3ccccc3)N2C1=O [AT-406] (1000 nM) | 97.2 |
| CC1(COc2ccc3c(c2)ncn3-c2ccc3cccc(N4CCC(N)CC4)c3n2)COC1 [Crenolanib] (1000 nM) | 85.9 |
| CC(C)(C)c1nc(-c2cccc(NS(=O)(=O)c3c(F)cccc3F)c2F)c(-c2ccnc(N)n2)s1 [Dabrafenib] (250 nM) | 110 |
| Cc1nc(C(=O)NCC(=O)O)c(O)c2ccc(Oc3ccccc3)cc12 [FG-4592] (1000 nM) | 112 |
| CC[C@H](CO)Nc1nc(NCc2ccccc2)c2ncn(C(C)C)c2n1 [Seliciclib] (1000 nM) | 101 |
| C=CCN(/C=C1/C(=O)O[C@H](COC)[C@@]2(C)C1=C(O)C(=O)C1=C2[C@H](OC(C)=O)C[C@]2(C)C(=O)CC[C@@H]12)CC=C [Sonolisib] (1000 nM) | 104 |

test system: MCF-10A; experiment: as above; settings: incubation time: 72 h
Summary of the method: as §1

| SMILES | normalised response [%] |
| --- | --- |
| CN[C@@H](C)C(=O)N[C@H]1CN(C(=O)CC(C)C)CC[C@H]2CC[C@@H](C(=O)NC(c3ccccc3)c3ccccc3)N2C1=O [AT-406] (1000 nM) | 109 |
| CC1(COc2ccc3c(c2)ncn3-c2ccc3cccc(N4CCC(N)CC4)c3n2)COC1 [Crenolanib] (1000 nM) | 108 |
| CC(C)(C)c1nc(-c2cccc(NS(=O)(=O)c3c(F)cccc3F)c2F)c(-c2ccnc(N)n2)s1 [Dabrafenib] (250 nM) | 94.2 |
| Cc1nc(C(=O)NCC(=O)O)c(O)c2ccc(Oc3ccccc3)cc12 [FG-4592] (1000 nM) | 94.2 |
| CC[C@H](CO)Nc1nc(NCc2ccccc2)c2ncn(C(C)C)c2n1 [Seliciclib] (1000 nM) | 101 |
| C=CCN(/C=C1/C(=O)O[C@H](COC)[C@@]2(C)C1=C(O)C(=O)C1=C2[C@H](OC(C)=O)C[C@]2(C)C(=O)CC[C@@H]12)CC=C [Sonolisib] (1000 nM) | 66.6 |

test system: BT-549; experiment: as above; settings: incubation time: 72 h
Summary of the method: as §1

| SMILES | normalised response [%] |
| --- | --- |
| CN[C@@H](C)C(=O)N[C@H]1CN(C(=O)CC(C)C)CC[C@H]2CC[C@@H](C(=O)NC(c3ccccc3)c3ccccc3)N2C1=O [AT-406] (1000 nM) | 53.4 |
| CC1(COc2ccc3c(c2)ncn3-c2ccc3cccc(N4CCC(N)CC4)c3n2)COC1 [Crenolanib] (1000 nM) | 71.2 |
| CC(C)(C)c1nc(-c2cccc(NS(=O)(=O)c3c(F)cccc3F)c2F)c(-c2ccnc(N)n2)s1 [Dabrafenib] (250 nM) | 82.7 |
| Cc1nc(C(=O)NCC(=O)O)c(O)c2ccc(Oc3ccccc3)cc12 [FG-4592] (1000 nM) | 97.3 |
| CC[C@H](CO)Nc1nc(NCc2ccccc2)c2ncn(C(C)C)c2n1 [Seliciclib] (1000 nM) | 117 |
| C=CCN(/C=C1/C(=O)O[C@H](COC)[C@@]2(C)C1=C(O)C(=O)C1=C2[C@H](OC(C)=O)C[C@]2(C)C(=O)CC[C@@H]12)CC=C [Sonolisib] (1000 nM) | 112 |

test system: Hs578T; experiment: as above; settings: incubation time: 72 h
Summary of the method: as §1

| SMILES | normalised response [%] |
| --- | --- |
| CC1(COc2ccc3c(c2)ncn3-c2ccc3cccc(N4CCC(N)CC4)c3n2)COC1 [Crenolanib] (1000 nM) | 83.4 |
| Cc1nc(C(=O)NCC(=O)O)c(O)c2ccc(Oc3ccccc3)cc12 [FG-4592] (1000 nM) | 85.2 |
| CC[C@H](CO)Nc1nc(NCc2ccccc2)c2ncn(C(C)C)c2n1 [Seliciclib] (1000 nM) | 86.4 |
| C=CCN(/C=C1/C(=O)O[C@H](COC)[C@@]2(C)C1=C(O)C(=O)C1=C2[C@H](OC(C)=O)C[C@]2(C)C(=O)CC[C@@H]12)CC=C [Sonolisib] (1000 nM) | 89.7 |

test system: MFM-223; experiment: as above; settings: incubation time: 72 h
Summary of the method: as §1

| SMILES | normalised response [%] |
| --- | --- |
| CN[C@@H](C)C(=O)N[C@H]1CN(C(=O)CC(C)C)CC[C@H]2CC[C@@H](C(=O)NC(c3ccccc3)c3ccccc3)N2C1=O [AT-406] (1000 nM) | 54.2 |
| CC1(COc2ccc3c(c2)ncn3-c2ccc3cccc(N4CCC(N)CC4)c3n2)COC1 [Crenolanib] (1000 nM) | 100 |
| CC(C)(C)c1nc(-c2cccc(NS(=O)(=O)c3c(F)cccc3F)c2F)c(-c2ccnc(N)n2)s1 [Dabrafenib] (250 nM) | 103 |
| Cc1nc(C(=O)NCC(=O)O)c(O)c2ccc(Oc3ccccc3)cc12 [FG-4592] (1000 nM) | 103 |
| CC[C@H](CO)Nc1nc(NCc2ccccc2)c2ncn(C(C)C)c2n1 [Seliciclib] (1000 nM) | 95.6 |
